According to patent publication EP2229935A1, “Peptide derivatives or pharmaceutically acceptable salts thereof, method for producing the same, use of said derivatives and pharmaceutical composition” (Nebolsin, Vladimir Evgenievich, priority 1997, dated 1999):
Marks after values point to notes of the source that are not given here.

Tests used:
[1] = system: peripheral blood neutrophils; assay: Activity of peripheral blood neutrophils in mice with LLC; assay type: in vivo, C57BL/6 female mice; conditions: Cyclophosphane 5 times 20.0 mg/kg (in 48 hours) for 10 days
Description: Experiments were carried out on C57BL/6 female mice with intramuscularly transplanted LLC carcinoma. Activity of neutrophils was measured by days 11 and 14.
• control - animals with LLC tumor, 10 animals; • animals with LLC tumor + compound III at a dose 500.0 µg/kg for 10 days. 8 animals; • animals with LLC tumor + Cyclophosphane 5 times at a dose 20.0 mg/kg (in 48 hours) for 10 days, 8 animals; • compound III and Cyclophosphane according to the above dosage regimen, 8 animals.
Experiment duration was 14 days.

[2] = system: Lewis pulmonary carcinoma (LLC); assay: LLC metastasizing with surgical resection of the primary tumor node, alone and with Cyclophosphane; assay type: in vivo, C57BL/6 female mice; conditions: 96 hour interval, 100 µg/kg
Description: An important property of the compounds is their ability to manifest pharmacological activity on the model with resection of the primary tumor node and not to lower therapeutic efficacy of respective antitumor drugs. […] Surgical resection of the primary tumor node was performed by day 13 following tumor transplantation. The test anitumor compounds were administered according to two dosage regimens:
Dosage regimen 1 - animals were administered compound III from day 1 till day 13 of experiment at a dose 500 µg/kg (group 1); Cyclophosphane was administered intraperitoneally two times before operation with 96 hour interval at a dose 100 µg/kg (group 2); combined administration of compound III and Cyclophosphane was similar to administration of substances in groups 1 and 2 (group 3). Number of metastases was calculated by day 29 of experiment;
Dosage regimen 2 - animals were administered compound III from day 14 of experiment (commencement of administration 24 hours post operation) till day 28 (group 4); Cyclophosphane was administered twice post operation with 96 hour interval at a dose 100 µg/kg (group 5); combined administration of compound III and Cyclophosphane similar to administration of substances in groups 4 and 5 (group 6). Antimetastatic efficacy of the drugs was considered by day 29 of experiment.

mongrel male mice [3] = assay: Passive cutaneous anaphylaxis reaction; assay type: in vivo; conditions: PCA, oral 3 days, 10 µg/kg
Description: Experiments were carried out on mongrel male mice with initial body mass 22-24 g. Each group included 10 animals. Sensibilization of animals was accomplished by intradermal injection of 20-30 µl of the serum of mice obtained from preliminaryly immunized animals comprising reagent antibodies against chicken ovalbumin (OVA). […] In 48 hours after sensibilzation an anaphylaxis-provoking OVA dose (1 mg and 0,2 ml Evans blue in 0.2 ml normal saline) were intravenously injected to mice. Passive cutaneous anaphylaxis reaction intensity (PCA) was determined in 30 minutes by the size (area) of a blue spot on the internal skin surface in the site of reagent anibodies' administration. Spot size was measured in two mutually perpendicular directions and the result was expressed in mm^2.

peritoneal mast cells = assay: Histamine secretion by peritoneal mast cells of sensitized rats; assay type: in vivo, Wistar male rats; conditions: intraperitoneal 3 days; for Stimulated secretion, percent: OVA-stimulated
Description: Effects on histamine release. […] 2 ml of cellular suspension containing 0.1-0.2 x 10^6 MC/ml were incubated in the presence of […] OVA. Histamine secretion was expressed in percent to its total level. Histamine amount in samples was determined using spectrofluorimetric method [Short P.A., Burkhalter A., Cohn V.N. A method for fluorimetric assay of histamine in tissues. J. Pharmacol. Exper.
Animals of the control group were intraperitonelly injected normal saline (group 1). Each group included 10 animals.

hydroxyl radical = assay: Hydroxyl radical formation in the Fenton reagent (chemiluminescence); assay type: biochemical
mongrel guinea-pigs = assay: Food anaphylaxis (active anaphylactic shock) in OVA-sensitized guinea pigs; conditions: oral 3 days before provoking anaphylaxis, 50 µg/kg
mongrel mice = assay: Acute hypobaric hypoxia model (AHBH); assay type: in vivo; conditions: single administration, 300,000 µg/kg
Description: (§1) The tests of determining average lifetime of animals in a closed volume and on the model of acute hypobaric hypoxia at the minimum atmospheric rarefaction (170-185 mm Hg) were used to study antihypoxic activity of the compunds of general formula (I).
Simulation of AHBH was done in a flow-through chamber at temperature 22°C. Experiments were carried out on mongrel mice with initial body mass 20 g at the minimum rarefaction 170-185 mm Hg, that corresponds to the altitude of 10500-11000 m. Lift rate was 35 m/second. Each group included 15 animals. Compounds were administered orally, lift on to altitude was performed 2 hours after the last administration.
Groups of animals: • Group 1 - intact control -administration of normal saline four times. • Groups 2 and 3 - administration of the compound III at doses 50 and 500 µg/kg for 4 days. • Group 4 - single administration of sodium oxybutyrate at a dose […].

mongrel male mice [4] = assay: Average lifetime of mice in a closed volume (hypoxia); assay type: in vivo; conditions: without preliminary hypoxia, oral 2 hours before hypoxia, 300 mg/kg
Description: as §1
Mice were one by one placed into sealed glass jars and their lifetime was recorded.
The experiment was carried out on 90 mongrel male mice having initial body mass 20 ± 0,5 g housed in cages by 10 animals and given a standard vivarium ration. Average lifetime of mice in closed vessels having volume 250 ml was preliminarily determined and it was 22 to 25 minutes. All the groups included 10 animals each.
Experimental protocol: • a) - preliminary hypoxia for 12 minutes; • b) - first administration of a compound immediately following preliminary hypoxia; • c) - second administration of a compound in 24 hours after the first one, then daily for three days; • d) - recording lifetime of animals under hypoxic conditions in a sealed space 2 hours after the last administration of a compound.
The test compounds were dissolved in distilled water and orally administered to animals for 5 days.
Experimental groups: • Group 1 -(control) - without preliminary hipoxia with oral administration of distilled water for 5 days; • Groups 2 and 3 - administration of the compound XLIV using two doses 50 and 500 µg respectively; • Group 4 - oral administration of sodium oxybutyrate at a dose […] 2 hours before hypoxia; • Group 5 -(control)- with preliminary hypoxia for 12 minutes with subsequent administration of distilled water for 5 days; • Groups 6 and 7 - administration of the compound XLIV using two doses 50 and 500 µg respectively; • Groups 8 and 9 - administration of the compound III using two doses 50 and 500 µg respectively.

[5] = regimen 1: intraperitoneally two times before operation
[6] = regimen 2: twice post operation

O=P1(N(CCCl)CCCl)NCCCO1 (stereo not shown) [Cyclophosphane, reference compound]
Percent of active neutrophils ([1]; Background): 21.5 ± 3.4%
Percent of active neutrophils ([1]; day 11): 7.6 ± 2.0%
Percent of active neutrophils ([1]; day 14): 20.6 ± 6.0%
Mean number of metastases [2, 5]: 19.5 ± 5.1
Metastasizing inhibition percent [2, 5]: 43.9%
Metastasizing rate (%) [2, 5]: 100%
Mean number of metastases [2, 6]: 18.0 ± 4.3
Metastasizing inhibition percent [2, 6]: 51.5%
Metastasizing rate (%) [2, 6]: 100%

CN(C)CCN(Cc1ccc(Cl)cc1)c1ccccn1 [Suprastine, reference compound]
Percent of the reaction inhibition (mongrel male mice [3]): 7.6%
Reaction intensity, mm^2 (mongrel male mice [3]): 82.1 ± 18.1 mm^2
Stimulated secretion, percent (peritoneal mast cells; 1000 µg/kg): 7.02%
Histamine level, µg/10^6 MC (peritoneal mast cells; 1000 µg/kg): 16.24*^1 µg/10^6 MC
Spontaneous secretion, percent (peritoneal mast cells; 1000 µg/kg): 5.62%

N[C@H](CCC(=O)NCCc1c[nH]cn1)C(=O)O [compound XLV, γ -L-, D-glutamylhistamine]
relative effect: I+/I- (hydroxyl radical; 1 µM): 1.0
Chemiluminiscence intensity (mV) + σn-1 (hydroxyl radical; 1 µM, control of the series as in the table): 7666 ± 101 mV
relative effect: I+/I- (hydroxyl radical; 0.01 mM): 0.95
Chemiluminiscence intensity (mV) + σn-1 (hydroxyl radical; 0.01 mM, control of the series as in the table): 7443 ± 267 mV
relative effect: I+/I- (hydroxyl radical; 0.1 mM): 0.74
Chemiluminiscence intensity (mV) + σn-1 (hydroxyl radical; 0.1 mM, control of the series as in the table): 5800 ± 247 mV
relative effect: I+/I- (hydroxyl radical; 1 mM): 0.16
Chemiluminiscence intensity (mV) + σn-1 (hydroxyl radical; 1 mM, control of the series 7839 ± 171, 1120 ± 163, 4974 ± 283 or 1332 ± 172): 2195 ± 18 mV
Stimulated secretion, percent (peritoneal mast cells; 50 µg/kg): 2.32*^1,3%
Histamine level, µg/10^6 MC (peritoneal mast cells; 50 µg/kg): 16.90*^1 µg/10^6 MC
Spontaneous secretion, percent (peritoneal mast cells; 50 µg/kg): 9.63*^1,3%
Anaphylactic index (mongrel guinea-pigs): 0.90*
Lethality in percent (mongrel guinea-pigs): 6.7** percent
Seizures in percent (mongrel guinea-pigs): 15.5* percent

O=C(O)CCCO [sodium oxybutyrate, reference compound]
Effect in percent (mongrel mice; lifetime relative to control): 119 ± 4,4%
Lifetime under hypoxic conditions (minutes) (mongrel mice; mice, 170-185 mm Hg): 364,3 ± 13,5 minutes
Lifetime (seconds) (mongrel male mice [4]): 2103,9±100,5**^1 seconds
